Measurements: the kinase profiling compilation of Christmann-Franck et al. (2016)

Key:
Experiment in all cases: radiometric filter-binding kinase assay, Kinase HotSpot
Conditions in all cases: compound 0.5 µM; ATP 10 µM
CDK7 CCNH MNAT1 (human) = CDK7 CCNH MNAT1 (human) (UniProt P50613+P51948+P51946)
FER (human) = FER (human) (UniProt P16591)
PRKX (human) = PRKX (human) (UniProt P51817)
AKT2 (human) = AKT2 (human) (UniProt P31751)
PTK2B (human) = PTK2B (human) (UniProt Q14289)
OXSR1 (human) = OXSR1 (human) (UniProt O95747)
MUSK (human) = MUSK (human) (UniProt O15146)
PRKCB2 (human) = PRKCB2 (human) (UniProt P05771)
MAPKAPK3 (human) = MAPKAPK3 (human) (UniProt Q16644)
CSNK1E (human) = CSNK1E (human) (UniProt P49674)
STK24 (human) = STK24 (human) (UniProt Q9Y6E0)
LCK (human) = LCK (human) (UniProt P06239)
IGF1R (human) = IGF1R (human) (UniProt P08069)
STK16 (human) = STK16 (human) (UniProt O75716)
Chain of STK16 (human) (O75716 whole entry, looked up): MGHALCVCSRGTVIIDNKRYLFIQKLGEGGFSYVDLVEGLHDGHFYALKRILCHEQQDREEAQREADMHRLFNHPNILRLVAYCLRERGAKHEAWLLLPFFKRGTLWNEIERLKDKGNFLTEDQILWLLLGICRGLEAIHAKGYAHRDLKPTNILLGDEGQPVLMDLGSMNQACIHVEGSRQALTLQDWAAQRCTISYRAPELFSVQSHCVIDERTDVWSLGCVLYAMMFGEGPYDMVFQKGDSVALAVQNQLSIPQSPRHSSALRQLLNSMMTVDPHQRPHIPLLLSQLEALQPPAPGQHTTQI

LTK (human) = LTK (human) (UniProt P29376)
PAK7 (human) = PAK7 (human) (UniProt Q9P286)
Chain of PAK7 (human) (Q9P286 whole entry, looked up): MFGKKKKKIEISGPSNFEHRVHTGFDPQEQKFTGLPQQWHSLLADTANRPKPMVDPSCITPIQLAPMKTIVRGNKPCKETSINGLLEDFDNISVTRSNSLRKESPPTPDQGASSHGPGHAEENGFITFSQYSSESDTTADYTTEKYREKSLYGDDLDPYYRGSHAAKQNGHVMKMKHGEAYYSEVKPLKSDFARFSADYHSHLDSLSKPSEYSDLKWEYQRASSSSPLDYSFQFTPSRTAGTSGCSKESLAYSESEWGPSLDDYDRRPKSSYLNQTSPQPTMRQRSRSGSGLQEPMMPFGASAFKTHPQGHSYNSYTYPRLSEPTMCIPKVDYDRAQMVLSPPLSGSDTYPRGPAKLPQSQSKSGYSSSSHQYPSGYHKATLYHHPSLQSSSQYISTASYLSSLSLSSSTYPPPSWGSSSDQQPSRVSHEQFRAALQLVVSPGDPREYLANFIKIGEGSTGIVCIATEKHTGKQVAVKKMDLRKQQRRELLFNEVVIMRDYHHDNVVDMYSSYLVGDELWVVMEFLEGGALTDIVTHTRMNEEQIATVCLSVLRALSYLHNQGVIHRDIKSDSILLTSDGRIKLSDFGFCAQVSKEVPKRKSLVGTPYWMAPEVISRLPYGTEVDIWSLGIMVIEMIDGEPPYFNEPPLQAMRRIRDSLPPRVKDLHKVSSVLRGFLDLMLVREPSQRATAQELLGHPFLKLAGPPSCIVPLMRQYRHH

MAPK8 (human) = MAPK8 (human) (UniProt P45983)
SRC (human) = SRC (human) (UniProt P12931)
MAPK12 (human) = MAPK12 (human) (UniProt P53778)
Chain of MAPK12 (human) (P53778 whole entry, looked up): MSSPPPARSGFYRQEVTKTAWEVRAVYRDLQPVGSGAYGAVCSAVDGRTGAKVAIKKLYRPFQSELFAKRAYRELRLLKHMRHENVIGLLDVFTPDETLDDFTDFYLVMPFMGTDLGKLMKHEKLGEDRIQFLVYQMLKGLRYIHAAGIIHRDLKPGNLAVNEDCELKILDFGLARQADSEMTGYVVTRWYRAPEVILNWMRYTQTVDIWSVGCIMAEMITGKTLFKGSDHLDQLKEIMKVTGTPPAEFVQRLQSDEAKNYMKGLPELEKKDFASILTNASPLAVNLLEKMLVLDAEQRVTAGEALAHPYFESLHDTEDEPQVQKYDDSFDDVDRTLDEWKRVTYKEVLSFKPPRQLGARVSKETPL

MAP3K11 (human) = MAP3K11 (human) (UniProt Q16584)
TSSK1B (human) = TSSK1B (human) (UniProt Q9BXA7)
TAOK2 (human) = TAOK2 (human) (UniProt Q9UL54)
STK39 (human) = STK39 (human) (UniProt Q9UEW8)
PRKCD (human) = PRKCD (human) (UniProt Q05655)
Chain of PRKCD (human) (Q05655 whole entry, looked up): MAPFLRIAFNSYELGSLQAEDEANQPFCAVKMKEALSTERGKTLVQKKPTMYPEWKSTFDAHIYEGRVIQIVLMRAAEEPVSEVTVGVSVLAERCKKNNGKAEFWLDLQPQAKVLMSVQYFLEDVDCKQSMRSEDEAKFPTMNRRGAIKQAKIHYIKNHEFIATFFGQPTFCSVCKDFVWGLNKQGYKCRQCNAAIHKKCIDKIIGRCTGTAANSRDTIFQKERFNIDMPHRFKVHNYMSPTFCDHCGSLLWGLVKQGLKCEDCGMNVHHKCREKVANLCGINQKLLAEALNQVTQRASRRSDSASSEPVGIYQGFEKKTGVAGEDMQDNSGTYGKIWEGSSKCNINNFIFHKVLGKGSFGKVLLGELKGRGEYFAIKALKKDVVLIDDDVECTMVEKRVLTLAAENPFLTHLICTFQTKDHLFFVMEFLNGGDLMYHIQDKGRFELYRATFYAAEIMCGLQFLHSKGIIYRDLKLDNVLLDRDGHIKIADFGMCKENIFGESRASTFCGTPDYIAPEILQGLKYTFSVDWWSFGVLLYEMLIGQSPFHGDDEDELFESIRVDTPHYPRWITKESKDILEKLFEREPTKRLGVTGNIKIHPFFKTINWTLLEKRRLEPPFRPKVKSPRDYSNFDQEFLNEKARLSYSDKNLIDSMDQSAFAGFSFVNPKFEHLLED

CDK1 CCNA2 (human) = CDK1 CCNA2 (human) (UniProt P06493+P20248)
ULK1 (human) = ULK1 (human) (UniProt O75385)
AXL (human) = AXL (human) (UniProt P30530)
CLK4 (human) = CLK4 (human) (UniProt Q9HAZ1)
Chain of CLK4 (human) (Q9HAZ1 whole entry, looked up): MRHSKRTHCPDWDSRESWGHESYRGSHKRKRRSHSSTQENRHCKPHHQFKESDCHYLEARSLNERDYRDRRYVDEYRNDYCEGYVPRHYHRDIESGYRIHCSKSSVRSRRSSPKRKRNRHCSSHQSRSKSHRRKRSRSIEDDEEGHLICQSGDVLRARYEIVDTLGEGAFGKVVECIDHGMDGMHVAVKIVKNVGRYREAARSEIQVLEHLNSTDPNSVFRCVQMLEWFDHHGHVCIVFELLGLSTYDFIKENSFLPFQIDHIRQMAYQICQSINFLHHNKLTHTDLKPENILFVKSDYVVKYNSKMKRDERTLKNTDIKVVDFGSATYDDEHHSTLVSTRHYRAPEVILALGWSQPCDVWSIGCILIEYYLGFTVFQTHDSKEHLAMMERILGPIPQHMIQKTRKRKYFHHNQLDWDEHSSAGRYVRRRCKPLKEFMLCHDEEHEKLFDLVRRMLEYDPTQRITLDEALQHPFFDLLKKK

PASK (human) = PASK (human) (UniProt Q96RG2)
Chain of PASK (human) (Q96RG2 whole entry, looked up): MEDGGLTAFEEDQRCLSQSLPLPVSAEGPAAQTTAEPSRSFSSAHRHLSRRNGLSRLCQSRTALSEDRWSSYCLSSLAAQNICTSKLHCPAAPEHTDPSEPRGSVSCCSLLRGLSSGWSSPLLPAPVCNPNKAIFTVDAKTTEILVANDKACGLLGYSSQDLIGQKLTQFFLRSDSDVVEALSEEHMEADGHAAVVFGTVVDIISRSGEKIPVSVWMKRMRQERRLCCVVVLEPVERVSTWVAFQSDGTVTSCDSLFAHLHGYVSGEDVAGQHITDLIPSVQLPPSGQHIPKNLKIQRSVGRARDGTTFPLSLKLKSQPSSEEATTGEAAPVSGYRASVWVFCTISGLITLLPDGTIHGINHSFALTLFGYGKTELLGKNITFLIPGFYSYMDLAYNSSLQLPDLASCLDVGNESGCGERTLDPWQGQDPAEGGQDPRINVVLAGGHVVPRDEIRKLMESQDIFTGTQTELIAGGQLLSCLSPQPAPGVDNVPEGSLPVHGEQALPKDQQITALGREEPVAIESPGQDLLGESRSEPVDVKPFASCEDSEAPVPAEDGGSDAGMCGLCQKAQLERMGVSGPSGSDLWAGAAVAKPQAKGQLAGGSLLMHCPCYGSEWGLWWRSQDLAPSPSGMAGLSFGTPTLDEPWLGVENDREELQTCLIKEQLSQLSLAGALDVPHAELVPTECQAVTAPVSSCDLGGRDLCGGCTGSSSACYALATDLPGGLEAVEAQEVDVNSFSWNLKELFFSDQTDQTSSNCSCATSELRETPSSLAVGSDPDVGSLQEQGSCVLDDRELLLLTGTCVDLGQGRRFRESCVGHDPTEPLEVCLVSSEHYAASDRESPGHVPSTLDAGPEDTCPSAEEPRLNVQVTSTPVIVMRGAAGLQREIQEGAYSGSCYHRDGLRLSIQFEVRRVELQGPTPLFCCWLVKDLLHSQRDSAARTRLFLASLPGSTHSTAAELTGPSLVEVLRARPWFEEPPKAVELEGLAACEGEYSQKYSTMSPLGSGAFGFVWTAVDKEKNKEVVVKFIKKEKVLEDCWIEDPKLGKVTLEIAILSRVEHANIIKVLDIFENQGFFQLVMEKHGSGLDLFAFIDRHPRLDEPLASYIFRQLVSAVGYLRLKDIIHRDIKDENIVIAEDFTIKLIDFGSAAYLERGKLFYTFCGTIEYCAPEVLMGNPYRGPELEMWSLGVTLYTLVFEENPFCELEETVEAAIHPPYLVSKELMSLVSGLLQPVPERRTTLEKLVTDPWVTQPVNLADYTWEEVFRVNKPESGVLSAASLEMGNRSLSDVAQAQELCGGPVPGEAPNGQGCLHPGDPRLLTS

MET (human) = MET (human) (UniProt P08581)
MAP4K2 (human) = MAP4K2 (human) (UniProt Q12851)
CDK4 CCND3 (human) = CDK4 CCND3 (human) (UniProt P30281+P11802)
RPS6KB1 (human) = RPS6KB1 (human) (UniProt P23443)
Chain of RPS6KB1 (human) (P23443 whole entry, looked up): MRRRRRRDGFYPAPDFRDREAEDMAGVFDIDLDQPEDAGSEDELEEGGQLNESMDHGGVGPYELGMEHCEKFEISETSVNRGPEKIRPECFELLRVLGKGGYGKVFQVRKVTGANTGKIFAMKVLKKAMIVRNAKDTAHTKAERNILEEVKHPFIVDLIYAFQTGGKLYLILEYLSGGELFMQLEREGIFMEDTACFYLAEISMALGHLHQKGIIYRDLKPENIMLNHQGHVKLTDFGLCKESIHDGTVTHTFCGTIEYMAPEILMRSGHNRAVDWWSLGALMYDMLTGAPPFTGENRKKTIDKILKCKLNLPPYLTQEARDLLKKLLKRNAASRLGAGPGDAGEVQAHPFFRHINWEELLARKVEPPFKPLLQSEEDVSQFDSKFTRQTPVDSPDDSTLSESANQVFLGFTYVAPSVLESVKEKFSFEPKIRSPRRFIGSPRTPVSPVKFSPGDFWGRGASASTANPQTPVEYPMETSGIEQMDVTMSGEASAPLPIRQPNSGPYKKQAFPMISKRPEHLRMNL

PAK1 (human) = PAK1 (human) (UniProt Q13153)
Chain of PAK1 (human) (Q13153 whole entry, looked up): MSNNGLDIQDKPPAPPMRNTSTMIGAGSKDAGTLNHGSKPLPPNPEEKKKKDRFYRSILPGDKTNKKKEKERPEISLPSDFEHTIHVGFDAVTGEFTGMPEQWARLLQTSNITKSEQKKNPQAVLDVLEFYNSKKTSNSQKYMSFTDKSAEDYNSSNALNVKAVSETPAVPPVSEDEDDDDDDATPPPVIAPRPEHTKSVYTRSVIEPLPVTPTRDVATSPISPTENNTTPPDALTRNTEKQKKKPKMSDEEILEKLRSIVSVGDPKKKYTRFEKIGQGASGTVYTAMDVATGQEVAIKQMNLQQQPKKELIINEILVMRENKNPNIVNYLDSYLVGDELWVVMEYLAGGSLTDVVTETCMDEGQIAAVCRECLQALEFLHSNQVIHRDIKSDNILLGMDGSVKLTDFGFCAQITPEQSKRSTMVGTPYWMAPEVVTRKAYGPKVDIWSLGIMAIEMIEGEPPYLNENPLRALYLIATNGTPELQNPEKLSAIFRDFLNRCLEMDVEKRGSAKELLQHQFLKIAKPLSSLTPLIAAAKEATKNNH

| Compound | residual activity (CDK7 CCNH MNAT1 (human)) [%] | residual activity (FER (human)) [%] | residual activity (PRKX (human)) [%] | residual activity (AKT2 (human)) [%] | residual activity (PTK2B (human)) [%] | residual activity (OXSR1 (human)) [%] | residual activity (MUSK (human)) [%] | residual activity (MAPKAPK3 (human)) [%] | residual activity (CSNK1E (human)) [%] | residual activity (STK24 (human)) [%] | residual activity (LCK (human)) [%] | residual activity (IGF1R (human)) [%] | residual activity (STK16 (human)) [%] | residual activity (LTK (human)) [%] | residual activity (PAK7 (human)) [%] | residual activity (MAPK8 (human)) [%] | residual activity (SRC (human)) [%] | residual activity (MAPK12 (human)) [%] | residual activity (MAP3K11 (human)) [%] | residual activity (TSSK1B (human)) [%] | further results |
| --- | --- | --- | --- | --- | --- | --- | --- | --- | --- | --- | --- | --- | --- | --- | --- | --- | --- | --- | --- | --- | --- |
| Cc1nc2cc3nc(-c4cccs4)cnc3cc2n1C | 102 | 104 | 106 | 91.5 | 96.4 | 99.4 | 90.6 | 102 | 94.5 | 103 | 86.3 | 96.4 | 95.2 | 95.2 | 114 | 93.7 | 89.9 | 103 | 91.1 | 91.3 | residual activity (PRKCB2 (human)): 121%; residual activity (TAOK2 (human)): 99.7%; residual activity (STK39 (human)): 79.8%; residual activity (PRKCD (human)): 78.6%; residual activity (CDK1 CCNA2 (human)): 102%; residual activity (ULK1 (human)): 84.6%; residual activity (AXL (human)): 109%; residual activity (CLK4 (human)): 79.2%; residual activity (PASK (human)): 110%; residual activity (MET (human)): 111%; residual activity (MAP4K2 (human)): 110%; residual activity (CDK4 CCND3 (human)): 101%; residual activity (RPS6KB1 (human)): 95%; residual activity (PAK1 (human)): 86.6% |
| CC(=O)O/N=C1\C(=C2\C(=O)Nc3cc(Br)ccc32)Nc2ccccc21 | 91.1 | 86.4 | 99.9 | 113 | 85.9 | 112 | 68.5 | 105 | 55.8 | 70.9 | 53.5 | 106 | 76.5 | 83.3 | 89.1 | 88.9 | 26.2 | 85.2 | 42.5 | 92.4 | residual activity (PRKCB2 (human)): 101%; residual activity (TAOK2 (human)): 84.4%; residual activity (STK39 (human)): 105%; residual activity (PRKCD (human)): 97%; residual activity (CDK1 CCNA2 (human)): 77.5%; residual activity (ULK1 (human)): 95.6%; residual activity (AXL (human)): 88%; residual activity (CLK4 (human)): 94.1%; residual activity (PASK (human)): 86.2%; residual activity (MET (human)): 98.2%; residual activity (MAP4K2 (human)): 44%; residual activity (CDK4 CCND3 (human)): 86.2%; residual activity (RPS6KB1 (human)): 95.4%; residual activity (PAK1 (human)): 93.6% |
| O=C1NC(=O)C(c2cn(CCCO)c3ncccc23)=C1c1cnccn1 | 96.9 | 99.2 | 106 | 114 | 94 | 101 | 67.1 | 103 | 93.9 | 72.1 | 95.8 | 98.4 | 90.3 | 90.9 | 88.2 | 99.6 | 78.9 | 86.8 | 80.8 | 94.9 | residual activity (TAOK2 (human)): 88.1%; residual activity (STK39 (human)): 111%; residual activity (PRKCD (human)): 97%; residual activity (CDK1 CCNA2 (human)): 91.8%; residual activity (ULK1 (human)): 102%; residual activity (AXL (human)): 104%; residual activity (CLK4 (human)): 100%; residual activity (PASK (human)): 97.1%; residual activity (MET (human)): 121%; residual activity (MAP4K2 (human)): 67.4%; residual activity (CDK4 CCND3 (human)): 95.9%; residual activity (RPS6KB1 (human)): 90.2%; residual activity (PAK1 (human)): 101% |
